Measurements: the supplement of paper PMC7287046

Columns and labels:
Settings in all cases: exposure time: 72 h
KNS-42 [1] = assay: Bliss synergy score (Combenefit); higher = more synergy; extreme values may be limits of the assay
Procedure, shortened: (§1)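 Loewe, Bliss and highest single agent synergy scores came from Combenefit analysis of normalised viability matrices, with viability measured by CellTiter-Glo as percent of DMSO controls. To build the matrices, drug pairs were applied to glioma cell lines in 96-well plates as 6 × 6 grids of twofold dilutions, 24 h after plating, and read three days later. The top concentration of each drug was its own IC50.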

AM-38 [2] = assay: as above
Procedure, shortened: as §1

T98G [3] = assay: as above
Procedure, shortened: as §1

SNB75 [4] = assay: as above
Procedure, shortened: as §1

U251 [5] = assay: as above
Procedure, shortened: as §1

SF268 [6] = assay: as above
Procedure, shortened: as §1

SF539 [7] = assay: as above
Procedure, shortened: as §1

U87 [8] = assay: as above
Procedure, shortened: as §1

U118 [9] = assay: as above
Procedure, shortened: as §1

KNS-42 [10] = assay: Loewe synergy score (Combenefit); higher = more synergy; extreme values may be limits of the assay
Procedure, shortened: as §1

AM-38 [11] = assay: as above
Procedure, shortened: as §1

T98G [12] = assay: as above
Procedure, shortened: as §1

SNB75 [13] = assay: as above
Procedure, shortened: as §1

U251 [14] = assay: as above
Procedure, shortened: as §1

SF268 [15] = assay: as above
Procedure, shortened: as §1

SF539 [16] = assay: as above
Procedure, shortened: as §1

U87 [17] = assay: as above
Procedure, shortened: as §1

U118 [18] = assay: as above
Procedure, shortened: as §1

KNS-42 [19] = assay: HSA synergy score (Combenefit); higher = more synergy
Procedure, shortened: as §1

AM-38 [20] = assay: as above
Procedure, shortened: as §1

T98G [21] = assay: as above
Procedure, shortened: as §1

SNB75 [22] = assay: as above
Procedure, shortened: as §1

U251 [23] = assay: as above
Procedure, shortened: as §1

SF268 [24] = assay: as above
Procedure, shortened: as §1

SF539 [25] = assay: as above
Procedure, shortened: as §1

U87 [26] = assay: as above
Procedure, shortened: as §1

U118 [27] = assay: as above
Procedure, shortened: as §1

SNB75 [28] = assay: Chou-Talalay combination index (dimensionless); higher = less synergy (more antagonism)
Procedure, shortened: (§2)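 For combination testing, glioma cell lines were seeded at optimal density in 96-well plates, or in low-adhesion plates for primary cultures. Treatment began after 24 h with two drugs crossed in a 6 × 6 matrix of twofold dilutions, alongside an untreated control repeated sixfold, and CellTiter-Glo was read three days later at least in triplicate. Dilutions of each drug started from its single-drug IC50. Viability relative to DMSO controls, in percent, fed a median-effect calculation of the Chou–Talalay combination index.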

U251 [29] = assay: as above
Procedure, shortened: as §2

KNS42 = assay: as above
Procedure, shortened: as §2

T98 = assay: as above
Procedure, shortened: as §2

SF268 [30] = assay: as above
Procedure, shortened: as §2

SF539 [31] = assay: as above
Procedure, shortened: as §2

U87 [32] = assay: as above
Procedure, shortened: as §2

U118 [33] = assay: as above
Procedure, shortened: as §2

AM38 = assay: as above
Procedure, shortened: as §2

SMILES	Bliss synergy score (KNS-42 [1])	Bliss synergy score (AM-38 [2])	Bliss synergy score (T98G [3])	Bliss synergy score (SNB75 [4])	Bliss synergy score (U251 [5])	Bliss synergy score (SF268 [6])	Bliss synergy score (SF539 [7])	Bliss synergy score (U87 [8])	Bliss synergy score (U118 [9])	Loewe synergy score (KNS-42 [10])	Loewe synergy score (AM-38 [11])	Loewe synergy score (T98G [12])	Loewe synergy score (SNB75 [13])	Loewe synergy score (U251 [14])	Loewe synergy score (SF268 [15])	Loewe synergy score (SF539 [16])	Loewe synergy score (U87 [17])	Loewe synergy score (U118 [18])	HSA synergy score (KNS-42 [19])	HSA synergy score (AM-38 [20])	HSA synergy score (T98G [21])	HSA synergy score (SNB75 [22])	HSA synergy score (U251 [23])	HSA synergy score (SF268 [24])	HSA synergy score (SF539 [25])	HSA synergy score (U87 [26])	HSA synergy score (U118 [27])	Chou-Talalay combination index (SNB75 [28])	Chou-Talalay combination index (U251 [29])	Chou-Talalay combination index (KNS42)	Chou-Talalay combination index (T98)	Chou-Talalay combination index (SF268 [30])	Chou-Talalay combination index (SF539 [31])	Chou-Talalay combination index (U87 [32])	Chou-Talalay combination index (U118 [33])	Chou-Talalay combination index (AM38)
CCC(=O)N1CCN(c2ccc(-n3c(=O)ccc4cnc5ccc(-c6cnc7ccccc7c6)cc5c43)cc2C(F)(F)F)CC1 [Torin1] + CCCCCCCCCCCC1=C(O)C(=O)C=C(O)C1=O [Embelin]	0.0808	0.037	0	1.77	2.83	0.248	0.761	2.62	1.08	3.32	1.83	0	1.4	5.87	1.92	1.98	0.761	1.87	5.07	2.04	0	7.31	6.4	2.48	2.69	3.43	2.41	0.841	0.874	0.865	0.173	0.864	0.855	0.673	0.917	0.856
CCC(=O)N1CCN(c2ccc(-n3c(=O)ccc4cnc5ccc(-c6cnc7ccccc7c6)cc5c43)cc2C(F)(F)F)CC1 [Torin1] + N#CC(c1ccnc(NCCc2cccnc2)n1)c1nc2ccccc2s1 [AS601245]	0	0	0	0	0.142	0.983	4.4	0	0	0	0	0.121	0	0.0482	0.416	2.66	0	2.14	1.23	0	0.235	0.213	2.53	3.85	11.4	0	2.19	1.11	0.948	1.02	0.962	0.963	0.864	2.44	1.07	1.32
CCC(=O)N1CCN(c2ccc(-n3c(=O)ccc4cnc5ccc(-c6cnc7ccccc7c6)cc5c43)cc2C(F)(F)F)CC1 [Torin1] + O=c1[nH]c2ccccc2n1C1CCN(Cc2ccc(-c3[nH]c4cc5ncnc5cc4nc3-c3ccccc3)cc2)CC1 [Akt inhibitor VIII]	6.55	0.504	4.49	0.0946	1.02	0.944	3.46	5.43	5.39	11.3	7.92	2.94	0.719	0.27	5.18	9.28	0.347	9.44	16.1	14.7	9.39	3.56	1.85	13.5	10.4	6.03	17.9	0.591	0.878	0.852	0.645	0.85	0.778	0.797	0.769	0.83
